Test results: US9439882B2, “Compounds and compositions for the treatment of cancer” (PROMETIC BIOSCIENCES, INC., priority 2010, dated 2016)

Assays:
[1] = test system: human prostate PC-3 tumor; assay: Xenograft human prostate PC-3 tumor in mice; type: in vivo; conditions: cyclophosphamide alone; p≦0.05; FIG. 15
Description: The xenogenic human prostate tumor PC-3 was obtained from ATCC (CRL1435). PC-3 cells were grown in RPMI-1640 containing 10% fetal bovine serum. At day 0, 50 μL of viable PC-3 (1.5 to 2×10^6) cells were subcutaneously injected to produce localized tumors in 6- to 8-week old male CD1 nu/nu mice. The animals were then serially monitored by manual palpation for evidence of tumor. […] Mice were sacrificed at day 56. Serial tumor volume was obtained by bi-dimensional diameter measurements with calipers, using the formula 0.4 (a×b^2) where “a” was the major tumor diameter and “b” the minor perpendicular diameter.

[2] = test system: HK-2 cells; assay: TGF-β induced epithelial to mesenchymal transition in HK-2 cells (real-time PCR of E-cadherin, CTGF, collagen 1); type: cell-based, human; conditions: sodium decanoate and Compound I at 0.5 mM; for TGF-β induced EMT: HK-2 cells; for CTGF transcript expression / collagen 1 transcript expression: TGF-β-stimulated cells, 24 h, normalized to GAPDH; for basal expression of CTGF / basal expression of collagen 1: compound alone, no TGF-β
Description: (§1) FIG. 20 is a bar graph showing the effect of Compound XVII on E-cadherin in normal HK-2 cells and in TGF-β induced EMT cells. Real-time PCR using human E-cadherin TaqMan® Gene Expression Assay normalized to human GAPDH endogenous control; reference is TGF-δ-treated cells 24 h (RQ=1). *means p<0.05, and ** means p<0.01 (t-test).
as §1, with “FIG. 21” for “FIG. 20”, “on CTGF” for “on E-cadherin”, “human CTGH” for “human E-cadherin”, “is TGF-β-treated” for “is TGF-δ-treated”
FIG. 22 is a bar graph showing the effect of Compound XVII on collagen 1 in normal HK-2 cells and in TGF-β induced EMT cells. Real-time PCR using human Collagen 1 TaqMan® Gene Expression Assay normalized to human GAPDH endogenous control; reference is TGF-β-treated cells 24 h (RQ=1). ** means p<0.01 (t-test).
Real-time PCR using human CTGF TaqMan® Gene Expression Assay and Collagen 1 TaqMan® Gene Expression Assay normalized to human GAPDH endogenous control; reference is TGF-β-treated cells 24 h (RQ=1).
FIG. 24 is a bar graph showing the effect of Compound I on CTGF and collagen 1 expression in normal HK-2 cells and in TGF-β induced EMT cells. Real-time PCR using human CTGF TaqMan® Gene Expression Assay and Collagen 1α1 TaqMan® Gene Expression Assay normalized to human GAPDH endogenous control; reference is TGF-β-treated cells 24 h (RQ=1). Compound I is added at 0.5 mM.
Further analysis was undertaken to determine the effect of Compoounds on EMT. The effect of Compound XVII on TGF-β induced EMT was analyzed on human epithelial […] cells (HK-2). To assess the progression of EMT, the pro-epithelial marker E-cadherin and the mesenchymal/pro-fibrotic markers CTGF and collagen 1 were assayed by quantitative real-time PCR. To determine the efficacy of Compound XVII in inhibiting TGF-β-induced EMT, verification of the ability of TGF-β to induce EMT in HK-2 cells.

[3] = test system: CTGF production; assay: Inhibition of TGF-induced CTGF production in NHDF (ELISA); type: cell-based; conditions: Homo sapiens, 10 ng/mL TGF-β, 48 h
Description: (§2) The effect of selected compounds on CTGF production was undertaken in normal human dermal fibroblast (NHDF) or human mesangial cells. Cells were cultured in DMEM (0.5% FBS) with or without 10 ng/mL of TGF-β for 48 h in a humidified atmosphere of 95% air-5% carbon dioxide at 37° C. CTGF measurement in the culture medium was measured using the CTGF ELISA according to the manufacturer (Prepotech) recommendations.

[4] = test system: CTGF production; assay: Inhibition of TGF-induced CTGF production in human mesangial cells (ELISA); type: cell-based; conditions: FIG. 2
Description: as §2

[5] = test system: P815 mastocytoma; assay: Primary P815 mastocytoma tumor growth in mice; type: in vivo
From the text: The syngeneic tumor P815 is a DBA/2 (H-2^d)-derived mastocytoma obtained from ATCC (TIB64). […] Mice were sacrificed around day 23 (depending on the experiment). […] Tumors were palpable, in general, 3-5 days post-inoculation.

[6] = test system: IL-12 production; assay: IL-12 production in LPS-stimulated RAW264.7 cells (ELISA); type: cell-based; conditions: compound 0.5 mM; 100 ng/mL LPS, 21 h
Description: The effect of selected compounds on IL-12 production was undertaken in RAW264.7 (macrophage-like) cells. RAW264.7 cells were cultured with 100 ng/mL of LPS in presence or absence of compounds for 21 h in a humidified atmosphere of 95% air-5% carbon dioxide at 37° C. IL-12 concentration in the culture medium was measured using the IL-12 ELISA according to the manufacturer (BD Biosciences) recommendations. […] Compounds have no effect on IL-12 production in the absence of LPS.

[7] = test system: B16F10 melanoma cells; assay: Primary B16F10 melanoma tumor in mice; type: in vivo; conditions: C57BL/6 mice; sodium decanoate 100 mg/kg oral daily, doxorubicin 5 mg/kg (subtherapeutic dose); FIG. 3
Description: Female 6-8 week old C57BL/6 mice were injected subcutaneously on day 0 with 50 μL of 3.75×10^4 viable B16F10 melanoma cells from ATCC (source of cell culture, Dr. I. J. Fidler). On day 14, tumors reached […] and animals were randomized for treatment. […] Mice were sacrificed on day 12.

[8] = test system: P815 liver metastasis; assay: P815 liver metastasis in mice; type: in vivo; conditions: oral 200 mg/kg; p<0.05; FIG. 9 and 10
Description: The syngeneic tumor P815 is a DBA/2 (H-2^d)-derived mastocytoma obtained from ATCC (TIB64). P815 cells were grown in DMEM containing 10% fetal bovine serum. At day 0, 50 μL of 5×10^5 viable P815 cells were subcutaneously injected to produce localized tumors in 6- to 8-week old DBA/2 mice. The animals were then serially monitored by manual palpation for evidence of tumor. […] Mice were sacrificed around day 23 (depending on the experiment). Serial tumor volume was obtained by bi-dimensional diameter measurements with calipers, using the formula 0.4 (a×b^2) where “a” was the major tumor diameter and “b” the minor perpendicular diameter. Tumors were palpable, in general, 3-5 days post-inoculation.
It is known that P815 cells have the capacity to metastasize to the liver.

[9] = test system: Panc02 pancreatic cancer; assay: Subcutaneous Panc02 pancreatic tumor growth; type: in vivo, mice; conditions: from day 34-39; oral; p<0.05; FIG. 16
[10] = test system: CT-26WT colon tumor; assay: Primary colon CT-26WT tumor in mice; type: in vivo; conditions: sodium decanoate oral 200 mg/kg daily; 5-fluorouracil i.p. 40 mg/kg day 6, 13, 20; Compound XV oral; FIG. 12 and 13
Description: The syngeneic tumor CT-26WT (CT-26) is a colon tumor cell line obtained from ATCC (CRL-2638). CT-26 cells were grown in RPMI containing 10% fetal bovine serum. At day 0, 50 μL of 5×10^6 viable CT-26 cells were subcutaneously injected to produce localized tumors in 6- to 8-week old mice. The animals were then serially monitored by manual palpation for evidence of tumor. […] Mice were sacrificed at day 25. Serial tumor volume was obtained by bi-dimensional diameter measurements with calipers, using the formula 0.4 (a×b^2) where “a” was the major tumor diameter and “b” the minor perpendicular diameter. Tumors were palpable, in general, 3-5 days post-inoculation.

[11] = test system: LL/2 lung tumor; assay: LL/2 lung tumor in mice; type: in vivo; conditions: sodium decanoate oral 200 mg/kg daily; gemcitabine i.p. 50 mg/kg day 1, 8, 15, 22; FIG. 11
From the text: The syngeneic tumor LL/2 is a lung tumor cell line obtained from ATCC (CRL-1642). […] Mice were sacrificed at day 26. […] Tumors were palpable, in general, 3-5 days post-inoculation.

[12] = test system: Panc02 pancreatic adenocarcinoma; assay: Orthotopic Panc02 pancreatic cancer model, survival; type: in vivo; conditions: C57BL/6 mice; gemcitabine i.p. 50 mg/kg once a week, Compound XV oral 200 mg/kg daily; control 50 days; FIG. 4
Description: Syngeneic Panc02 is a pancreatic adenocarcinoma tumor cell line obtained from NCI (0507232). Panc02 cells are positive for Ki-Ras, p53, HerNEU and CDK. Panc02 were grown in RPMI-1640 containing 10% fetal bovine serum. At day 0, 50 μL of 5×10^5 viable Panc02 cells were injected into the tail of the pancreas in 6- to 8-week old C57BL/6 mice. Mice were then treated every day with oral administration of vehicle (saline, negative control), or Compound XV and with intraperitoneal injection of gemcitabine (50 mg/kg) once a week starting at day 8.

Row | Structure (SMILES) | tumor growth T/C [1] | TGF-β induced EMT [2] | CTGF transcript expression [2] | collagen 1 transcript expression [2] | basal expression of CTGF [2] | basal expression of collagen 1 [2] | inhibition at 200 µM ([3]; 200 μM) [%] | inhibition of TGF-induced CTGF production [4] | P815 tumor growth ([5]; oral 200 mg/kg, FIG. 7 and 8) | IL-12 [6] [pg/mL] | reduction of primary tumor volume compared to the control [7] | reduction of mice with liver metastasis [8] [%] | tumor growth Treated/Control (T/C) [9] | inhibition at 500 µM ([3]; 500 μM) [%] | efficacy on primary tumor CT-26 (single agent) [10] | P815 tumor growth ([5]; DBA/2 mice, oral 40-200 mg/kg every day, FIG. 6) | efficacy on primary tumor LL/2 (single agent) [11] | median survival [12] [days]
1 | O=P1(N(CCCl)CCCl)NCCCO1 (centres unmarked) [Cyclophosphamide, cyclophosphamide] | 42-78% | – | – | – | – | – | – | – | – | – | – | – | – | – | – | – | – | –
2 | CCCCCc1cccc(CC(=O)[O-])c1.[Na+] [Compound I, Sodium Salt of (3-pentylphenyl)Acetic Acid] | – | significant inhibition | reduction | reduction | reduction | reduction | 54 | significant (p<0.05) inhibition | significant reduction (p<0.05) | 54 | – | – | – | – | – | – | – | –
3 | CCCCCCCCCC(=O)[O-].[Na+] [Sodium decanoate] | – | significant inhibition | reduction | reduction | reduction | reduction | – | – | significant reduction (p<0.05) | 50 | around 25% | 50 | 60-70% | 51 | weak efficacy | significant reduction (p<0.05) | weak efficacy | –
4 | Nc1ccn([C@@H]2O[C@H](CO)[C@@H](O)C2(F)F)c(=O)n1 [gemcitabine, reference compound] | – | – | – | – | – | – | – | – | – | – | – | – | – | – | – | – | weak efficacy | 68.5
